# Laboratory results as given in patent US9856508B2, “Chemiluminescent compositions, methods, assays and kits for oxidative enzymes” (LIFE TECHNOLOGIES CORPORATION, priority 2010, dated 2018).
# Key:
# CYP3A family isozymes [1] = test: Isozyme specificity of 1,2-dioxetane substrates, rhCYP microsomes, 2-step endpoint assay; assay type: biochemical, human; conditions: dioxetane as enzyme substrate
# Protocol: (§1) Assays were performed using the same conditions (25° C., 5 nM rhCyp, 10 μM substrate, 25 min endpoint assay, with isozyme-specific buffers, Luminoscan plate reader) but on different days.
# (§2) Cytochrome P450 assays have been developed to determine the isozyme specificity of novel 1,2-dioxetane chemiluminescent CYP450 substrates. In these assays, a 1,2-dioxetane substrate that has been determined to be a good substrate for a specific CYP450 isozyme is screened against individual recombinant (human or other) CYP450 isozymes. The protocol follows the 2-Step Endpoint assay format described above (Example 2, Format 1). The assay can be performed using either assay conditions that mimic an inhibition assay (Example 1) using substrate concentrations near the known or predicted Km of the substrate with its known isozyme, or at concentrations designed for more sensitive enzyme detection which is generally above the Km. Assays can be performed in several different ways depending on the desired information. If one is seeking to find out if the dioxetane is a substrate for different CYP450 isozymes at the specific isozyme's preferred assay conditions, the assays should be performed using the buffer and assay conditions preferred by each specific isozyme (Format 1). If one wants to find out if the dioxetane substrate is selective for a given CYP450 isozyme at that isozyme's preferred assay conditions, the assay should be performed using only the assay conditions of the matched isozyme (Format 2). Assays use recombinant human (rh) CYP450 isozymes (final [5 or 10 nM]), NADPH Regeneration System (final [1×]) and Potassium Phosphate Buffer prepared in a 2× Master Mix. 50 μL of the Master Mix is added to the wells of a 96-well plate. 40 μL of water is added the rows of the plate containing the Master Mix. The reaction is started by addition of 10 μL of a 10× NADP+ (nicotinamide adenine dinucleotide phosphate) and 1,2-Dioxetane Substrate (final [1 to 10 μM]) mix to assay wells. The assays are incubated for either 25 min (Format 1) or at the specific assay time (see Example 48, Format 2).
# (§3) • (See FIGS. 3A, 4A, and 5A.) Materials: • rhCytochrome P450 Isozymes: • CYP3A4 (BD/Gentest, Cat #456202) (or other vendor) • CYP2C19 (BD/Gentest, Cat #456259) (or other vendor) • CYP2C9 (BD/Gentest, Cat #456258) (or other vendor) • CYP2D6 (BD/Gentest, Cat #456217) (or other vendor) • CYP1A2 (BD/Gentest, Cat #456203) (or other vendor) • Or Other CYP450 recombinant isozymes • 200 mM Potassium Phosphate Buffer, pH 7.4 • 100 mM Potassium Phosphate Buffer, pH 7.4 • 100× NADP+ • (10 mM NADP+ in 100 mM Potassium phosphate buffer, pH 7.4) • 100× Regeneration System • (333 mM Glucose-6-phosphate, 30 Units/mL Glucose-6-phosphate dehydrogenase in 100 mM Potassium Phosphate Buffer, pH 7.4) • 1,2-Dioxetane Substrates (in 100% Acetonitrile, water, or acetonitrile/water mixture) • 96 well white microplate • Accelerator II Protocol Overview: (See, FIG. 10). Assay Set-Up:
# (§4) Contains: • NADP+: 100× stock is 10 mM NADP+ in 100 mM Potassium Phosphate Buffer, pH 7.4 • 100 μM Known 1,2-Dioxetane Substrate Assay Procedure: • 1. Thaw all reagents on ice, except substrates: warm-up to RT under aluminum foil (light sensitive) • 2. Prepare 2× Master Mixes in 2× reaction buffer (keep on ice).
# (§5) • 3. Add 50 μL of the specific 2× Master Mix to the desired wells • 4. Add 40 μL of sterile water (H2O) to each well of the plate • 5. Cover plate with plate sealer and let the assay wells equilibrate to 25° C. or room temperature for a few minutes while you prepare the 10×NADP+/Substrate Mixture. • 6. Prepare 10× NADP+/Substrate Mixture immediately before use (light sensitive!)
# (§6) • 100× NADP+: 10× (1× final) • H2O: to final volume. • Add substrate by trituration and vortex to allow for maximum substrate solubility in the aqueous mixture. • *The final organic solvent concentration in the assay should be less than 0.1% and preferably much less. • 7. […]
# CYP3A family isozymes [2] = molecular target: T1, CYP3A family isozymes (Homo sapiens, UniProt P08684); test: as above; assay type: biochemical; conditions: FIG. 4A; rhCYP microsomes, 25° C., 25 min, 10 μM substrate, 5 nM rhCYP450, isozyme-preferred potassium phosphate buffer, pH 7.4
# T1 construct: purchased BD/Gentest (CYP3A4 only; or other vendor) 456202 (CYP3A4); host or cells: recombinant human CYP microsomes
# Protocol: as §1, §2, §3, §4, §5, §6
# CYP2C19 [3] = molecular target: T2, CYP2C19 (Homo sapiens, UniProt P33261); test: as above; assay type: biochemical; conditions: for specificity for the CYP2C19 isozyme: FIG. 4A/5A, rhCYP microsomes, 25° C., 25 min, 10 μM substrate, 5 nM rhCYP450, isozyme-preferred potassium phosphate buffer, pH 7.4; for activity from CYP2C19 under CYP2C19 assay conditions: dioxetane as enzyme substrate
# T2 construct: purchased BD/Gentest (or other vendor) 456259; host or cells: recombinant human CYP microsomes
# Protocol: as §1, §2, §3, §4, §5, §6
# CYP2C19 [4] = test: Isozyme specificity of AMPPD-Bn in pooled human liver microsomes (HLMs); assay type: biochemical; conditions: FIG. 4B, 25 min, 25° C., 20 μM AMPPD-Bn, 100 mM potassium phosphate buffer, pH 7.4
# Protocol: FIG. 4A and FIG. 4B compare CYP450 isozyme specificity of 1,2-dioxetane substrate AMPPD-Bn in recombinant human microsomes (rhCYPs) and human liver microsomes. FIG. 4A is a graphic representation of isozyme specificity of AMPPD-Bn in rhCYP microsomes. Assays were performed at 25° C. for 25 min using 10 μM AMPPD-Bn, 5 nM rhCYP450 and isozyme-preferred potassium phosphate buffer, pH 7.4. […] FIG. 4B is a graphic representation of isozyme specificity of AMPPD-Bn in pooled human liver microsomes (HLMs). Assays were performed for 25 min at 25° C. using 20 μM AMPPD-Bn and 100 mM potassium phosphate buffer, pH 7.4. Positive (3A4) and negative (2C19, 2D6 and microsome only) controls were performed using 5 nM rhCYP450 microsomes. Pooled HLMs were assayed at 0.5, 0.25, 0.125, or 0.0625 mg/ml. Assays were performed either with or without 2 μM ketoconazole to indicate CYP3A family specificity. […] All assays were performed using the 2-step assay method (Example 48, Format A).
# The protocol follows the 2-Step endpoint assay format described in Example 48 (Format A). […] The assays are incubated for either 10 to 25 min before addition of Accelerator and reading of luminescent signal on a luminometer. For relative quantification, samples can be compared to a standard curve of known enzyme concentration, bearing in mind that recombinant enzyme can not fully compare to native enzyme. […]
# other CYP isozyme = test: Isozyme specificity of 1,2-dioxetane substrates, rhCYP microsomes, 2-step endpoint assay; assay type: biochemical, human; conditions: FIG. 5A, 25° C., 25 min, 10 μM BZT-Me, 5 nM rhCYP450
# Protocol: FIG. 5A and FIG. 5B compare CYP450 isozyme specificity of 1,2-dioxetane substrate BZT-Me in recombinant human microsomes (rhCYPs) and human liver microsomes. FIG. 5A is a graphic representation of isozyme specificity of BZT-Me in rhCYP microsomes. Assays were performed ate 25° C. for 25 min using 10 μM BZT-Me, 5 nM rhCYP450, and isozyme-preferred potassium phosphate buffer, pH 7.4. […] FIG. 5B is a graphic representation of isozyme specificity of BZT-Me in pooled human liver microsomes (HLMs). Assays were performed for 25 min at 25° C. using 20 μM BZT-Me and 50 mM potassium phosphate buffer, pH 7.4. Positive (2C19) and negative (3A4, 2D6, and microsome only) controls were performed using 5 nM rhCYP450 microsomes. Pooled HLMs or low 2C19 HLMs were assayed at 0.5, 0.25, 0.125, or 0.0625 mg/ml. Assays were performed with or without 2 μM ketoconazole to indicate CYP3A family specificity or 0.5 μM miconozole. All assays were performed using the 2-step assay method (Example 48, Format A).
# Cytochrome P450 assays have been developed to determine the isozyme specificity of novel 1,2-dioxetane chemiluminescent CYP450 substrates. In these assays, a 1,2-dioxetane substrate that has been determined to be a good substrate for a specific CYP450 isozyme is screened against individual recombinant (human or other) CYP450 isozymes. […]
# 2C19 and 2C18 isozymes = test: as above; assay type: biochemical, human; conditions: dioxetane as enzyme substrate
# Protocol: as §1
# Cytochrome P450 assays have been developed to determine the isozyme specificity of novel 1,2-dioxetane chemiluminescent CYP450 substrates. In these assays, a 1,2-dioxetane substrate that has been determined to be a good substrate for a specific CYP450 isozyme is screened against individual recombinant (human or other) CYP450 isozymes. The protocol follows the 2-Step Endpoint assay format described above (Example 2, Format 1). The assay can be performed using either assay conditions that mimic an inhibition assay (Example 1) using substrate concentrations near the known or predicted Km of the substrate with its known isozyme, or at concentrations designed for more sensitive enzyme detection which is generally above the Km. Assays can be performed in several different ways depending on the desired information. If one is seeking to find out if the dioxetane is a substrate for different CYP450 isozymes at the specific isozyme's preferred assay conditions, the assays should be performed using the buffer and assay conditions preferred by each specific isozyme (Format 1). If one wants to find out if the dioxetane substrate is selective for a given CYP450 isozyme at that isozyme's preferred assay conditions, the assay should be performed using only the assay conditions of the matched isozyme (Format 2). Assays use recombinant human (rh) CYP450 isozymes (final [5 or 10 nM]), NADPH Regeneration System (final [1×]) and Potassium Phosphate Buffer prepared in a 2× Master Mix. 50 μL of the Master Mix is added to the wells of a 96-well plate. 40 μL of water is added the rows of the plate containing the Master Mix. The reaction is started by addition of 10 μL of a 10× NADP+ (nicotinamide adenine dinucleotide phosphate) and 1,2-Dioxetane Substrate (final [1 to 10 μM]) mix to assay wells. The assays are incubated for either 25 min (Format 1) or at the specific assay time (see Example 48, Format 2). […]
# CYP2C8 = molecular target: T3, CYP2C8 (Homo sapiens, UniProt P10632); test: as above; assay type: biochemical; conditions: dioxetane as enzyme substrate
# T3 construct: host or cells: recombinant human CYP microsomes
# T3 sequence (P10632 1-490): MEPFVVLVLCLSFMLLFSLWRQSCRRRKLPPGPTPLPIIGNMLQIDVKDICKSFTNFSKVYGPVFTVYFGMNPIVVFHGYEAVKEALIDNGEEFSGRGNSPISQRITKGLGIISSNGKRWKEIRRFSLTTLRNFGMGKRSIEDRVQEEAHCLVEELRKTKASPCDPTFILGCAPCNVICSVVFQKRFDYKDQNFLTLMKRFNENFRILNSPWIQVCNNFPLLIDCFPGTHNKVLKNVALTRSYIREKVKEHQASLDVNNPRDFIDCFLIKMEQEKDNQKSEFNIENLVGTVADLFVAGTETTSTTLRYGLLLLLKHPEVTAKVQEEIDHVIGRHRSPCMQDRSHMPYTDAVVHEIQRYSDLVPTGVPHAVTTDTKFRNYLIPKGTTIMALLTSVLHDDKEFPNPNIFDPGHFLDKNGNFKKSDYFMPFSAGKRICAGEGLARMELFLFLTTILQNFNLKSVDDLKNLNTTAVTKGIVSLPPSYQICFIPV
# Protocol: as §1, §2, §3, §4, §5, §6
# T2 sequence (P33261 whole entry): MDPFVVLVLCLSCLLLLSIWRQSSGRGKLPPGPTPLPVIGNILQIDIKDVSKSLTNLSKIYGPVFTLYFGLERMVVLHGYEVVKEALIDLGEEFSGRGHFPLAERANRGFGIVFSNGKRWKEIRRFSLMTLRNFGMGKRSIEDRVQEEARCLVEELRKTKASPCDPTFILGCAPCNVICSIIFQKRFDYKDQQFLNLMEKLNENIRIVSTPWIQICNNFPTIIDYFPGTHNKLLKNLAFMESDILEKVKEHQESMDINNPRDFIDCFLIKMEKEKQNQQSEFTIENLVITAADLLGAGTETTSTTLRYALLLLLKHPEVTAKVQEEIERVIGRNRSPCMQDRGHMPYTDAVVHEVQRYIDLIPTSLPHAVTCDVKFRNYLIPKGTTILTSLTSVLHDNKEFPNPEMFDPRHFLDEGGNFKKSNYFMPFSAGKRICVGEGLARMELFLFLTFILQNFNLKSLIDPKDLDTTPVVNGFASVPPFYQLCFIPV
# T1 sequence (P08684 whole entry): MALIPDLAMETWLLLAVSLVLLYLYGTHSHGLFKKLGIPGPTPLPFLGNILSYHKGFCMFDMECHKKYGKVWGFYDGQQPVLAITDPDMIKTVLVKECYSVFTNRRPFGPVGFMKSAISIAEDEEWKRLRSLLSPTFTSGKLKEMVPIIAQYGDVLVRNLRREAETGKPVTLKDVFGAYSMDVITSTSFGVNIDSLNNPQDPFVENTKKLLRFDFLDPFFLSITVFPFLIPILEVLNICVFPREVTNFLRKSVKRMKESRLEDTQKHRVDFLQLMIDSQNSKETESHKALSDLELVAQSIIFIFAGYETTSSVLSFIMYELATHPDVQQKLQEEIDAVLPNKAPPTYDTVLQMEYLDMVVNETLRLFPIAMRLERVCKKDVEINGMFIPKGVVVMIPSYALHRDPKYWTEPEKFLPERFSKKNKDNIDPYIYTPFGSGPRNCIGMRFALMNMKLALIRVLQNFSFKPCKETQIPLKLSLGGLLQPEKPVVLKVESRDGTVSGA
smiles,measurement,setting,value
COC1(c2cccc(OCc3ccccc3)c2)OOC12C1CC3CC(C1)CC2C3 (stereo not drawn) [AMPPD-Bn],specificity for the CYP3A family isozymes,CYP3A family isozymes [1],strong specificity
same,specificity for CYP3A4 isozyme,CYP3A family isozymes [2],strong specificity
same,specificity for the CYP2C19 isozyme,CYP2C19 [3],strong specificity
same,activity from CYP2C19 under CYP2C19 assay conditions,CYP2C19 [3],significant activity
same,contribution of CYP2C19 activity to AMPPD-Bn oxidation in HLMs,CYP2C19 [4],does not significantly contribute
COc1ccc2sc(C3(OC)OOC34C3CC5CC(C3)CC4C5)cc2c1 (stereo not drawn) [BZT-Me],specificity for the CYP2C19 isozyme,CYP2C19 [3],strong specificity
same,oxidation by other CYP isozyme,other CYP isozyme,also oxidized
same,specificity for 2C19 and 2C18 isozymes,2C19 and 2C18 isozymes,strong specificity
COC1(c2ccc(Cl)c(OCc3ccccc3)c2)OOC12C1CC3CC2CC(Cl)(C3)C1 (stereo not drawn) [CDP-Star-Bn],specificity for the CYP3A family isozymes,CYP3A family isozymes [1],strong specificity
same,activity from CYP2C19 under CYP2C19 assay conditions,CYP2C19 [3],significant activity
"CCOc1cc(C2(OC)OOC23C2CC4CC3CC(Cl)(C4)C2)ccc1Cl (stereo not drawn) [CDP-Star-Et, CDP-Star-ET]",specificity for 2C19 and 2C18 isozymes,2C19 and 2C18 isozymes,strong specificity
COc1cc(C2(OC)OOC23C2CC4CC3CC(Cl)(C4)C2)ccc1Cl (stereo not drawn) [CDP-Star-Me],specificity for 2C19 and 2C18 isozymes,2C19 and 2C18 isozymes,strong specificity
COc1ccc2sc(C3(OC)OOC34C3CC5CC(C3)CC4C5)cc2c1Cl (stereo not drawn) [Cl-BZT-Me],specificity for 2C19 and 2C18 isozymes,2C19 and 2C18 isozymes,strong specificity
"CCOc1cccc(C2(OC)OOC23C2CC4CC3CC(OCC[N+](C)(CC)CC)(C4)C2)c1 (stereo not drawn) [Q+-Amino-Ad-Ph-OEt, Q^+-Amino-Ad-Ph-OEt dxt]",specificity for the CYP3A family isozymes,CYP3A family isozymes [1],strong specificity
CCOc1cccc(C2(OC)OOC23C2CC4CC3CC(OCCC(C(=O)[O-])C(=O)[O-])(C4)C2)c1.[Na+].[Na+] (stereo not drawn) [bis-CO2Na-Ad-Ph-OEt dxt],specificity for CYP2C8,CYP2C8,high specificity
